# Where two headings read alike, the source gives them in different places.
# How the values were obtained:
# Haemonchus contortus = experiment: Efficacy against Haemonchus contortus in jirds; type: in vivo, jirds (Meriones unguiculatus); conditions: 72 h, read-out: % Reduction in H.
# Description: Anthelmintic effects of compounds of this invention were tested in vivo using Haemonchus contuortus in jirds (Meriones unguiculatus). The jirds were orally infected with approximately 750-3,000 third-stage larvae of Haemonchus contortus. Ten days after infection, the jirds in the treatment groups were treated once orally or subcutaneously at a dose of 2, 10, and/or 50 mg per kg bodyweight. Three days after treatment, the jirds were necropsied, and the larvae burden in the stomach is determined. The efficacy is defined as the reduction of the mean larvae count in the jirds of the treatment groups in comparison to the infected jirds in the untreated negative control group.
# [1] = tested on: A. galli (intestinal roundworm of chicken) larval stage 3; O. dentatum (nodular worm of swine) larval stages 3 and 4; experiment: Activity against Ascaridia galli and Oesophagostomum dentatum larvae in vitro (minimum effective concentration); type: cell-based
# [2] = read-out: MEC (minimum effective concentration) against one or more of the tested nematodes, in vitro, one or more of A. galli L3, O. dentatum L3, L4, threshold 1 μM
# [3] = read-out: MEC (minimum effective concentration) against one or more of the tested nematodes, in vitro, one or more of A. galli L3, O. dentatum L3, L4, threshold 7 μM
# [4] = read-out: MEC (minimum effective concentration) against two or more of the tested nematodes, in vitro, two or more of A. galli L3, O. dentatum L3, L4, threshold 1 μM
# [5] = jirds, 10 mg/kg, oral, single treatment, larvae burden in stomach 3 days after treatment
# [6] = sc, jirds, 10 mg/kg, subcutaneous, single treatment, larvae burden in stomach 3 days after treatment
# [7] = in vitro, one or more of A. galli L3, O. dentatum L3, L4, threshold 1 μM, read-out: MEC (minimum effective concentration) against one or more of the tested nematodes
# [8] = in vitro, one or more of A. galli L3, O. dentatum L3, L4, threshold 7 μM, read-out: MEC (minimum effective concentration) against one or more of the tested nematodes
# [9] = in vitro, two or more of A. galli L3, O. dentatum L3, L4, threshold 1 μM, read-out: MEC (minimum effective concentration) against two or more of the tested nematodes
# [10] = jirds, 50 mg/kg, oral, single treatment, larvae burden in stomach 3 days after treatment
# [11] = sc, jirds, 50 mg/kg, subcutaneous, single treatment, larvae burden in stomach 3 days after treatment
Compound,inhibition in vivo at 50 mg/kg (Haemonchus contortus; po) [%],inhibition in vivo at 50 mg/kg (Haemonchus contortus; sc) [%],"minimal effective concentration [1, 2] [µM]","minimal effective concentration [1, 3] [µM]","minimal effective concentration [1, 4] [µM]","minimal effective concentration [1, 9] [µM]",further results
"CC(C)(C)c1ccc(N2CCN(CCC(=O)N3CCC(Nc4ccc([N+](=O)[O-])c(C(F)(F)F)c4)CC3)CC2)cc1 [Example 35, 3-[4-(4-tert-butyl-phenyl)-piperazin-1-yl]-1-[4-(4-nitro-3-trifluoromethyl-phenylamino)-piperidin-1-yl]-propan-1-one]",45,93,< 1,< 7,< 1,,
"COc1cc(NC2CCN(C(=O)CCN3CCN(c4ccc(OCc5ccc(C(F)(F)F)cc5)cc4)CC3)CC2)ccc1[N+](=O)[O-] [Example 40, 1-[4-(3-methoxy-4-nitro-phenylamino)-piperidin-1-yl]-3-{4-[4-(4-trifluoromethyl-benzyloxy)-phenyl]-piperazin-1-yl}-propan-1-one]",0,74,< 1,< 7,< 1,,
"O=C(CCCN1CCN(c2ccc(C(F)(F)F)cc2)CC1)N1CCC(Nc2ccc(C(F)(F)F)cn2)CC1 [Example 51, 4-[4-(4-trifluoromethyl-phenyl)-piperazin-1-yl]-1-[4-(5-trifluoromethyl-pyridin-2-ylamino)-piperidin-1-yl]-butan-1-one]",86,63,< 1,< 7,< 1,,
"O=C(CCCN1CCN(c2ccc(C(F)(F)F)cc2)CC1)N1CCC(Nc2ccc(OC(F)(F)F)cc2)CC1 [Example 54, 1-[4-(4-trifluoromethoxy-phenylamino)-piperidin-1-yl]-4-[4-(4-trifluoromethyl-phenyl)-piperazin-1-yl]-butan-1-one]",95,58,< 1,< 7,< 1,,
"O=C(CCN1CCC(OCc2ccc(C(F)(F)F)cc2)CC1)N1CCC(Nc2ccc([N+](=O)[O-])c(C(F)(F)F)c2)CC1 [Example 57, 1-[4-(4-nitro-3-trifluoromethyl-phenylamino)-piperidin-1-yl]-3-[4-(4-trifluoromethyl-benzyloxy)-piperidin-1-yl]-propan-1-one]",85,84,< 1,< 7,< 1,,
"CC(CN1CCN(c2ccc(Cl)cc2)CC1)C(=O)N1CCC(Nc2ccc([N+](=O)[O-])c(C(F)(F)F)c2)CC1 (centres unmarked) [Example 61, 3-[4-(4-chloro-phenyl)-piperazin-1-yl]-2-methyl-1-[4-(4-nitro-3-trifluoromethyl-phenylamino)-piperidin-1-yl]-propan-1-one]",100,100,< 1,< 7,< 1,,
"C[C@@H](CN1CCN(c2ccc(C(F)(F)F)cc2)CC1)C(=O)N1CCC(Nc2ccc([N+](=O)[O-])c(C(F)(F)F)c2)CC1 [Example 68, (S)-2-methyl-1-[4-(4-nitro-3-trifluoromethyl-phenylamino)-piperidin-1-yl]-3-[4-(4-trifluoromethyl-phenyl)-piperazin-1-yl]-propan-1-one]",,,,,,< 1,"inhibition in vivo at 10 mg/kg (Haemonchus contortus; [5]): 99%; inhibition in vivo at 10 mg/kg (Haemonchus contortus; [6]): 99%; minimal effective concentration [1, 7]: < 1 µM; minimal effective concentration [1, 8]: < 7 µM"
"Cc1cc(NC2CCN(C(=O)CCCN3CCN(c4ccc(C(F)(F)F)cc4)CC3)CC2)ncc1[N+](=O)[O-] [Example 71, 1-[4-(4-methyl-5-nitro-pyridin-2-ylamino)-piperidin-1-yl]-4-[4-(4-trifluoromethyl-phenyl)-piperazin-1-yl]-butan-1-one]",55,35,< 1,< 7,< 1,,
"O=C(CCCN1CCN(c2ccc(C(F)(F)F)cc2)CC1)NC1CCN(c2ccc([N+](=O)[O-])c(C(F)(F)F)c2)CC1 [Example 73, N-[1-(4-nitro-3-trifluoromethyl-phenyl)-piperidin-4-yl]-4-[4-(4-trifluoromethyl-phenyl)-piperazin-1-yl]-butyramide]",,,,,,< 1,"inhibition in vivo at 10 mg/kg (Haemonchus contortus; [5]): 54%; inhibition in vivo at 10 mg/kg (Haemonchus contortus; [6]): 63%; minimal effective concentration [1, 7]: < 1 µM; minimal effective concentration [1, 8]: < 7 µM"
"O=C(CCCN1CCN(c2ccc(C(F)(F)F)cc2)CC1)NC1CCN(c2ccc(SC(F)(F)F)cc2)CC1 [Example 76, 4-[4-(4-trifluoromethyl-phenyl)-piperazin-1-yl]-N-[1-(4-trifluoromethylsulfanyl-phenyl)-piperidin-4-yl]-butyramide]",,,,,,< 1,"inhibition in vivo at 10 mg/kg (Haemonchus contortus; [5]): 67%; inhibition in vivo at 10 mg/kg (Haemonchus contortus; [6]): 13%; minimal effective concentration [1, 7]: < 1 µM; minimal effective concentration [1, 8]: < 7 µM"
"O=C(CCN1CCN(c2nnc(C(F)(F)F)s2)CC1)N1CCC(Nc2ccc([N+](=O)[O-])c(C(F)(F)F)c2)CC1 [Example 124, 1-[4-(4-nitro-3-trifluoromethyl-phenylamino)-piperidin-1-yl]-3-[4-(5-trifluoromethyl-1,3,4-thiadiazol-2-yl)-piperazin-1-yl]-propan-1-one]",,,< 1,< 7,< 1,,inhibition in vivo at 10 mg/kg (Haemonchus contortus; po): 47%; inhibition in vivo at 10 mg/kg (Haemonchus contortus; sc): 75%
"O=C(CCN1CCN(c2ccc(C(F)(F)F)nc2)CC1)N1CCC(Nc2ccc([N+](=O)[O-])c(C(F)(F)F)c2)CC1 [Example 126, 1-[4-(4-nitro-3-trifluoromethyl-phenylamino)-piperidin-1-yl]-3-[4-(6-trifluoromethyl-pyridin-3-yl)-piperazin-1-yl]-propan-1-one]",,,< 1,< 7,< 1,,inhibition in vivo at 10 mg/kg (Haemonchus contortus; po): 64%; inhibition in vivo at 10 mg/kg (Haemonchus contortus; sc): 86%
"O=C(CCCC1CCN(c2ccc(C(F)(F)F)cc2)CC1)N1CCC(Nc2ccc([N+](=O)[O-])c(C(F)(F)F)c2)CC1 [Example 134, 1-[4-(4-nitro-3-trifluoromethyl-phenylamino)-piperidin-1-yl]-4-[1-(4-trifluoromethyl-phenyl)-piperidin-4-yl]-butan-1-one]",,,< 1,< 7,< 1,,inhibition in vivo at 10 mg/kg (Haemonchus contortus; po): 99%; inhibition in vivo at 10 mg/kg (Haemonchus contortus; sc): 99%
"O=C(CCCN1CCN(c2ccc(C(F)(F)F)cn2)CC1)N1CCC(Nc2ccc([N+](=O)[O-])c(C(F)(F)F)c2)CC1 [Example 151, 1-[4-(4-nitro-3-trifluoromethyl-phenylamino)-piperidin-1-yl]-4-[4-(5-trifluoromethyl-pyridin-2-yl)-piperazin-1-yl]-butan-1-one]",,,< 1,< 7,< 1,,inhibition in vivo at 10 mg/kg (Haemonchus contortus; po): 88%; inhibition in vivo at 10 mg/kg (Haemonchus contortus; sc): 84%
O=C(CCN1CCN(c2ccc(Cl)cc2)CC1)N1CCC(Nc2ccc(S(=O)(=O)c3ccc(F)cc3)cc2)CC1 [Example 295],,,,,,< 1,inhibition in vivo at 50 mg/kg (Haemonchus contortus; [10]): 97%; inhibition in vivo at 50 mg/kg (Haemonchus contortus; [11]): 0%
CC(C)(C)c1ccc(N2CCN(CCCC(=O)N3CCC(Nc4ccc(C#N)c(Cl)c4)CC3)CC2)cc1 [Example 322],67,73,,,< 1,,
CC(C)(C)c1ccc(N2CCN(CCC(=O)N3CCC(Nc4ccc(C#N)c(C(F)(F)F)c4)CC3)CC2)cc1 [Example 324],89,90,,,< 1,,
CCOC(=O)c1ccc(NC2CCN(C(=O)CCN3CCN(c4ccc(C(C)(C)C)cc4)CC3)CC2)cc1 [Example 334],,,,,,< 1,"inhibition in vivo at 50 mg/kg (Haemonchus contortus; [10]): 78%; inhibition in vivo at 50 mg/kg (Haemonchus contortus; [11]): 82%; minimal effective concentration [1, 7]: < 1 µM"
CN(C)S(=O)(=O)c1ccc(NC2CCN(C(=O)CCN3CCN(c4ccc(C(C)(C)C)cc4)CC3)CC2)cc1C(F)(F)F [Example 345],,,,,,< 1,inhibition in vivo at 50 mg/kg (Haemonchus contortus; [10]): 76%; inhibition in vivo at 50 mg/kg (Haemonchus contortus; [11]): 61%
CC(C)(C)c1ccc(C2CCN(CCC(=O)N3CCC(Nc4ccc([N+](=O)[O-])c(C(F)(F)F)c4)CC3)CC2)cc1 [Example 367],,,,,,< 1,inhibition in vivo at 50 mg/kg (Haemonchus contortus; [10]): 73%; inhibition in vivo at 50 mg/kg (Haemonchus contortus; [11]): 45%

# From US9096524B2, “Anthelmintic agents and their use” (Intervet International B.V., priority 2009, dated 2015)
